{"source": "patent US20250206845A1", "about": "“PHARMACEUTICAL COMPOSITION INCLUDING RHO-KINASE INHIBITOR FOR PREVENTION OR TREATMENT OF CUTANEOUS FIBROTIC DISORDERS SUCH AS KELOID, ETC. AND USE THEREOF” (Seoul National University R&DB Foundation, priority 2022, published 2025)", "key": {"[1]": {"test_system": "keloid nodules formed by human keloid fibroblasts", "test": "In vivo histological and immunohistochemical analysis of keloid nodules", "parameters": "species or system SCID mice", "experimental": "A isolates nodules from mice treated with DMSO or Y-27632. […] Original magnification: ×200, scale bar=100 μm.\nNodules were harvested 14 days after initial cell injection, fixed in 4% paraformaldehyde at 4° C. for 24 hours, washed with water for at least 4 hours, and finally embedded in paraffin. Paraffin sections (4 μm thick) were stained with hematoxylin and eosin (H&E, ab245880, Abcam, Cambridge, UK) and MT (TRM-2, ScyTek, Logan, Utah, USA) according to the manufacturer's instructions. The cytoplasm (400× magnification) of H&E-stained sections and the collagen density (400× magnification) of MT-stained sections were checked for each section using an Olympus BX53 microscope (Olympus Corporation, Shinjuku, Japan). Screenshots of three fine fields (right, center, and left) were acquired. The number of inflammatory cells per unit area (0.1 mm^2) was calculated using Olympus cellSens standard imaging software. The optical density of collagen was measured using ImageJ Immunohistochemical staining by avidin-biotin complex method. Briefly, paraformaldehyde (4%) fixed specimens were embedded in paraffin and cut into 4 μm thickness. The sections were dried at 56° C. for 1 hour, and then subjected to deparaffinization and rehydration steps with xylene. The sections were then cultured with trypsin enzyme antigen retrieval solution (ab970, Abcam, Cambridge, UK) at 37° C. for 30 min. Overnight culture was performed with primary antibodies at 4° C. After three washes with Tris-buffered saline containing 0.025% Triton-100, the second antibody was applied to each section at room temperature for 30 min. Images were taken in three fields (right, center, and left) with an Olympus BX53 microscope and analyzed with Image J software."}, "keloid fibroblasts [2]": {"test_system": "keloid fibroblasts", "test": "Cell viability / proliferation of keloid fibroblasts (CCK-8)", "assay_type": "cell-based, human", "conditions": "increasing dose of Y-27632, 24 hours, FIG. 3A", "experimental": "Immunofluorescence confocal microscopy experiments were performed with antibodies to F-actin (green) and vinculin (orange). Scale bar=50 μm. Quantification of fluorescence intensity was shown. The experiments were performed in triplicate. Student's t test was used for all analyses. * P<0.05. […] Briefly, human skin and keloid tissues were collected from five patients who underwent surgical resection at Seoul National University Boramae Hospital. The samples were rinsed three times with Dulbecco's phosphate-buffered saline containing 1% antibiotic-antifungal solution (A/A; Welgene, Gyeongsangbuk-do, Korea) and cut into 3 mm thick pieces. The tissues were then placed in 5 mg/ml dispase solution (Roche, Basel, Switzerland) for 4 hours at 37° C. The dermis and epidermis were separated, chopped into 1-mm thick pieces, and digested in 3 mg/ml collagenase type I (Thermo Fisher, MA, USA) to obtain a single cell suspension. The cells were cultured in Dulbecco's modified Eagle's medium (DMEM; Biowest, Nuaillé, France) containing 10% fetal bovine serum (FBS; Biowest, France) and 1% Antibiotic/Antimycotic Solution (Welgene Inc., Korea) in a humidified incubator at 37° C. and 5% CO2. […] The effect of stretch stimulation on the proliferation of normal and keloid fibroblasts was evaluated by the CCK-8 assay. […] The experiments were performed in triplicate and the data are expressed as the mean±SD."}, "ROCK1": {"test_system": "ROCK1", "conditions": "FIG. 4A", "quoted_text": "Mechanical stretching was applied to keloid fibroblasts using a mechanical stretching device (STB-1400; Strex Inc., Osaka, Japan). Briefly, the keloid fibroblasts were seeded at a density of 1.2×10^5 cells in a strex stretch chamber (STB-CH-10 Strex Inc., Osaka, Japan) pre-coated with 20 μg/ml rat tail type I collagen (C7661, Sigma Aldrich). After allowing attachment for overnight incubation, the strex stretch chamber was moved to the stretching device and mounted on a hook. The flexible silicone chamber was exposed to stretching with a length of 0-20% tension at a frequency of 10 cycles/min (0.166 Hz) for 24 hours. […] Cells of the control group were cultured in the same type of chamber in an incubator.\nROCK1 kinase activity was analyzed with a ROCK activity assay kit (Cell Biolabs, CA, USA) according to the manufacturer's instructions. The ROCK activity assay kit is an enzyme immunoassay designed to detect the phosphorylation level of myosin phosphatase target subunit 1 at Thr696 by ROCK. […] The cells were harvested, trypsinized, and washed twice with PBS. […] Protein concentrations were determined using the Pierce BCA Quantification Protein Kit (Thermo Fisher Scientific, MA, USA). […] The absorbance was read at 450 nm with a SpectraMax Plus 384 microplate reader (Molecular Devices, San Jose, CA, USA)."}, "[3]": {"test_system": "phosphorylated cofilin and myosin light chain (MLC)", "test": "Western blotting of p-MLC/MLC and p-cofilin/cofilin in keloid fibroblasts", "assay_type": "cell-based, human", "conditions": "keloid fibroblasts with or without stretch, Y-27632, FIG. 4C", "experimental": "Scale bar=50 μm. The results were expressed as the mean with SD (n=5). The experiments were performed in triplicate. Student's t test was used for all analyses. * P<0.05. […] To obtain whole-cell extracts, cells were lysed with Pierce Cell Lysis Buffer (Thermo Fisher, MA, USA) containing phosphatase inhibitors and protease inhibitors. Protein extracts (30 μg) were analyzed by sodium dodecyl sulfate polyacrylamide gel electrophoresis (SDS-PAGE) and transferred to a polyvinylidene difluoride membrane. […] GAPDH was used as a loading control for Western blotting analysis."}, "[4]": {"test_system": "COL1A1, COL3A1, Fibronectin, α-SMA, CTGF, PCNA mRNA", "test": "qRT-PCR of pro-fibrotic genes in keloid fibroblasts", "assay_type": "cell-based, human", "conditions": "mechanically stimulated keloid fibroblasts, FIG. 5A", "experimental": "Scale bar=200 μm. The results were expressed as the mean with SD (n=5). Student's t test was used for all analyses. * P<0.05. […] Total RNA was extracted using TRIzol reagent (Thermo Fisher Scientific, MA, USA). RNA (1000 ng) was subjected to cDNA synthesis using oligo (dT) random primers (Integrated DNA Technologies, IA, US) and AccuPower RT PreMix (Bioneer, South Korea) according to the following procedure: qRT-PCR was performed with PowerUp SYBR green master mix on a StepOnePlus real-time PCR System (Applied Biosystems, CA, USA) at 42° C. for 60 min and 95° C. for 5 min. The mRNA levels of each gene were normalized to the mRNA levels of GAPDH. The PCR steps are composed of an initial denaturation step at 94° C. for 5 min; at 94° C. for 1 min (denaturation), 55° C. for 1 min (annealing), and 72° C. for 2 min (extension); and a final extension step at 72° C. for 7 min. […] Relative expression was calculated using the 2-ΔΔCt method."}, "YAP and MRTF": {"test_system": "YAP and MRTF", "test": "Nuclear translocation of YAP and MRTF during stretching (subcellular fractionation, Western blotting)", "assay_type": "cell-based, human", "conditions": "stretched keloid fibroblasts, FIG. 6", "from_the_text": "A is a Western blotting analysis of nuclear translocation of YAP and MRTF in the subcellular fraction of keloid fibroblasts subjected to or not subjected to mechanical stretching with or without Y-27632. B is a quantitative analysis of cytoplasmic and nuclear expression levels of MRTF and YAP. The results were expressed as the mean with SD (n=5). Student's t test was used for all analyses. *P<0.05. Nuclear/cytoplasmic extracts were separated separately using NE-Per Nuclear and Cytoplamic Extractons Reagents (#78833, Thermo Scientific, MA, USA) according to the manufacturer's instructions. Subcellular fractionation lysis was analyzed by Western blotting analysis for YAP (#5157, Cell Signaling, MA, USA), MRTF (sc-47724, Santa Cruz, CA, USA) including GADPH ([…], Santa Cruz, CA, USA) and Lamin B (#12586, Cell Signaling, MA, USA) as internal markers for cytoplasmic and nuclear fractions, respectively. The quantification was performed with Image J software."}, "F-actin": {"test_system": "F-actin", "test": "F-actin immunofluorescence in keloid fibroblasts", "assay_type": "cell-based, human", "experimental": "Immunofluorescence confocal microscopy experiments were performed with antibodies to F-actin (green) and vinculin (orange). Scale bar=50 μm. Quantification of fluorescence intensity was shown. The experiments were performed in triplicate. Student's t test was used for all analyses. * P<0.05. […] Scale bar=50 μm. The results were expressed as the mean with SD (n=5). The experiments were performed in triplicate. Student's t test was used for all analyses. * P<0.05. […] Cells were washed twice with cold PBS and fixed overnight at 4° C. with 4% (w/v) paraformaldehyde. […] The cells were exposed to blocking buffer (1% BSA/PBS) for 30 min at room temperature and then exposed to Alexa Fluor 488-conjugated phalloidin (#A12379, Invitrogen, USA) in 1% BSA/0.1% Triton X-100/PBS for 1 hour at room temperature. After three washing steps, the cells were mounted with DAPI mounting medium, sealed with coverslip, and examined using a confocal laser scanning microscope (LSM 900; Carl Zeiss, NY, USA)."}, "keloid fibroblasts [5]": {"test_system": "keloid fibroblasts", "test": "Transwell migration analysis of keloid fibroblasts", "assay_type": "cell-based, human", "conditions": "under mechanical force (stretch 24 hours), 10 μM Y-27632, transwell 24 hours, FIG. 5B", "experimental": "Scale bar=200 μm. The results were expressed as the mean with SD (n=5). Student's t test was used for all analyses. * P<0.05.\nFor migration analysis using Transwell […] pore-size polycarbonate membrane (#3422, Corning Inc., ME, USA). […] As a control, static cells were cultured in a strex stretch chamber under the same conditions without stretch stimulation. Keloid cells were then harvested and counted, and 2×10^4 cells were resuspended in 150 μL of medium containing 1% FBS and reintroduced into the upper compartment of the insert. The lower compartment was filled with 500 μL of medium containing 2% FBS as a chemoattractant. The cells were allowed to migrate for 24 hours at 37° C. The cells were fixed in 4% PFA, permeabilized with 0.1% Triton X-100 in PBS for 10 min, and stained with hematoxylin for 10 min at room temperature. After washing with PBS, non-migrated cells were removed from the upper insert by a cotton swab. The polycarbonate membrane was removed from the insert and mounted on a slide. Fields of migrated cells were captured with an inverted microscope (Leica Microsystems GmbH, Wetzlar, Germany). The migration area was evaluated as a purple area extracted from each image, and analyzed with Image J software as a percentage of the migrated area."}, "[6]": {"test_system": "keloid nodules formed by human keloid fibroblasts", "test": "Patient-derived keloid xenograft SCID mouse model of nodule formation (nodule volume and weight)", "assay_type": "in vivo", "conditions": "SCID mice, Y-27632 20 mg/kg injected into nodule", "experimental": "Approval for animal experiments was obtained from the Animal Experiment Performance Committee of Seoul National University Boramae Hospital (Approval No.: 2019-0031). Male NOD.CB17-Prkdc scid/J (SCID) mice (5 weeks old, weight: 22.58±0.91 g) were purchased from Charles River Japan (Yokohama, Japan). All animal experimental procedures were performed in accordance with the guidelines of the Animal Experiment Research Committee of Seoul Boramae Hospital. All experiments were performed under aseptic conditions. Under anesthesia using isoflurane, the dorsal furs of seven SCID mice were removed, the midline was marked, and then a 26-gauge needle was used in a 1-ml syringe (Becton, Dickinson and Company, Franklin Lakes, NJ, USA). These cells were obtained from seven patients who underwent keloid resection at Seoul National University Boramae Hospital. The cells were injected approximately 1 cm apart from the left and right sides of the most prominent area of the mouse's back. […] The nodules were measured every 2 to 3 days with calipers, and nodule volume was calculated using the following equation: Nodule volume=½×A×B2, where A=length in millimeters, B=width in millimeters. To collect the nodules 14 days after keloid fibroblast injection, the surrounding skin was carefully separated using forceps and a blade, and only the nodules were collected and weighed."}}, "note": "Like-named read-outs stand apart in the source and are kept apart here.", "data": [{"compound": "C[C@@H](N)[C@H]1CC[C@H](C(=O)Nc2ccncc2)CC1", "note": "[Y-27632]", "values": [{"measurement": "inflammatory cells in the keloid region", "setting": "[1]; H&E staining, compared to the control group", "value": "reduced inflammatory cells"}, {"measurement": "deposition of collagen bundles (MT staining)", "setting": "[1]; control group compared to the Y-27632-treated group", "value": "higher deposition of collagen bundles in the control group"}, {"measurement": "protein expression of VEGF, SMA, vimentin, collagen type I, and collagen type III", "setting": "[1]; immunohistochemistry of nodule tissue, compared to the DMSO-treated group, FIG. 7B", "value": "significantly reduced"}, {"measurement": "inhibitory effect on keloid fibroblast proliferation", "setting": "keloid fibroblasts [2]", "value": "No inhibitory effect"}, {"measurement": "decrease in the activity of ROCK1", "setting": "ROCK1; keloid fibroblasts treated with Y-27632 (10 μM, 24 hours) and stretch-stimulated", "value": 26, "unit": "%"}, {"measurement": "decrease in the activity of ROCK1", "setting": "ROCK1; keloid fibroblasts treated with Y-27632 alone (10 μM, 24 hours, static)", "value": 10.8, "unit": "%"}, {"measurement": "expression of phosphorylated proteins (p-cofilin, p-MLC)", "setting": "[3]", "value": "greatest decrease"}, {"measurement": "mRNA levels of fibrotic genes (COL1A1, COL3A1, Fibronectin, α-SMA, CTGF, PCNA)", "setting": "[4]", "value": "decrease"}, {"measurement": "nuclear import of YAP and MRTF", "setting": "YAP and MRTF", "value": "inhibiting nuclear import"}, {"measurement": "disruption of F-actin cytoskeletal structure", "setting": "F-actin; at 25 and 50 μM, 24 h, keloid fibroblasts", "value": "dramatic disruption"}, {"measurement": "cellular F-actin network", "setting": "F-actin; fibroblasts with or without mechanical stretching exposed to Y-27632, FIG. 4B", "value": "significantly disrupted"}, {"measurement": "F-actin fiber formation in keloid fibroblasts", "setting": "F-actin; increasing doses, 24 h, FIG. 3B", "value": "tightly regulated by Y-27632 treatment in a dose-dependent manner"}, {"measurement": "migration of keloid fibroblasts", "setting": "keloid fibroblasts [5]", "value": "partially inhibited"}, {"measurement": "weight of keloid nodules compared to the control group", "setting": "[6]", "value": "significantly reduced"}, {"measurement": "mean volume of keloid nodules at the time of keloid nodule excision", "setting": "[6]; DMSO control 21.27±13.98", "value": "17.21±13.49", "unit": "MM^3"}, {"measurement": "average weight of keloid nodules", "setting": "[6]; control 7.61±3.16, FIG. 7A", "value": "4.56±3.50", "unit": "Mg"}]}]}
